The values below are quoted from earlier work in patent publication US20210029988A1, “PEST REPELLENT COMPOSITION” (JGC CATALYSTS AND CHEMICALS LTD., priority 2018, published 2021).

The conditions of data set [1]: within 6 hours.

Take `CCN(CC)C(=O)c1cccc(C)c1` [DEET, N,N-diethyl-m-toluamide]: the “Vapor pressure at 20°C (VP)” value is on record as 0.22 Pa. Also, the “Transdermally absorbed proportion of DEET applied on the skin” value in data set [1] was “about 50%”.
